Calls of active or inactive are those of the source. The rule behind the calls is not given here.
Columns and labels:
[1] = Selectivity index, ratio of IC50 for cytotoxicity against human WI-38 cells to IC50 for cytotoxicity against human A549 cells; type: toxicity, cell-based; settings: WI-38 cells versus A549 cells, read-out: Ratio IC50
[2] = Cytotoxicity against human WI-38 cells incubated for 72 hrs by MTT assay; type: toxicity, cell-based
NCI-H460 = assay: Cytotoxicity against human NCI-H460 cells incubated for 72 hrs by MTT assay; settings: NCI-H460, 72 h
WI-38 = assay: Cytotoxicity against human WI-38 cells by measuring effective concentration incubated for 72 hrs by MTT assay; type: toxicity, cell-based; settings: wi-38, 72 h
[3] = Selectivity index, ratio of IC50 for cytotoxicity against human WI-38 cells to IC50 for cytotoxicity against human NCI-H460 cells; type: toxicity, cell-based; settings: WI-38 cells versus NCI-H460 cells, read-out: Ratio IC50
A549 [4] = assay: cells; settings: Homo sapiens, A549, 72 h
Description: Cytotoxicity against human A549 cells incubated for 72 hrs by MTT assay

A549 [5] = assay: Induction of cell cycle arrest in human A549 cells assessed as accumulation of cells at S phase at 0.089 uM incubated for 48 hrs by propidium iodide staining based immunocytometric analysis (reference value: 36.94 %); type: functional
[6] = Antioxidant activity assessed as DPPH radical scavenging activity at 10 uM incubated for 30 mins by absorbance based assay relative to trolox; type: functional
A549 [7] = assay: Induction of cell cycle arrest in human A549 cells assessed as accumulation of cell debris at 0.089 uM incubated for 48 hrs by propidium iodide staining based immunocytometric analysis (reference value: 2.25 %); type: functional
A549 [8] = assay: Induction of cell cycle arrest in human A549 cells assessed as accumulation of cells at G1 phase at 0.089 uM incubated for 48 hrs by propidium iodide staining based immunocytometric analysis (reference value: 44.75 %); type: functional
A549 [9] = assay: Induction of cell cycle arrest in human A549 cells assessed as accumulation of aggregates at 0.089 uM incubated for 48 hrs by propidium iodide staining based immunocytometric analysis (reference value: 1.81 %); type: functional
A549 [10] = assay: Induction of apoptosis in human A549 cells assessed as necrotic cells at 0.089 uM incubated for 48 hrs by annexin V-FITC/PI staining based flow cytometry (reference value: 1.21 %); type: functional
[11] = Antioxidant activity assessed as DPPH radical scavenging activity incubated for 30 mins by absorbance based assay; type: functional
Calf thymus DNA [12] = assay: Binding affinity to calf thymus DNA assessed as disruption of DNA by measuring increase in TB3+ fluorescence upto 4 uM incubated for 24 hrs followed by biosensor TbCl3 addition by fluorescence spectrophotometric analysis; type: tissue-based; settings: Bos taurus
[13] = Antioxidant activity assessed as DPPH radical scavenging activity at 100 uM incubated for 30 mins by absorbance based assay (reference value: […] %); type: functional
Calf thymus DNA [14] = assay: Binding affinity to calf thymus DNA assessed as disruption of DNA by measuring increase in TB3+ fluorescence at 24.6 nM incubated for 24 hrs followed by biosensor TbCl3 addition by fluorescence spectrophotometric analysis; type: tissue-based; settings: Bos taurus
A549 [15] = assay: Induction of cell cycle arrest in human A549 cells assessed as accumulation of cells at G2/M phase at 0.089 uM incubated for 48 hrs by propidium iodide staining based immunocytometric analysis (reference value: 18.31 %); type: functional
A549 [16] = assay: Induction of apoptosis in human A549 cells assessed as late apoptotic cells at 0.089 uM incubated for 48 hrs by annexin V-FITC/PI staining based flow cytometry (reference value: 0.28 %); type: functional
A549 [17] = assay: Induction of apoptosis in human A549 cells assessed as early apoptotic cells at 0.089 uM incubated for 48 hrs by annexin V-FITC/PI staining based flow cytometry (reference value: 0.37 %); type: functional
Calf thymus DNA [18] = assay: Binding affinity to calf thymus DNA assessed as disruption of DNA by measuring increase in TB3+ fluorescence at 5 uM incubated for 24 hrs followed by biosensor TbCl3 addition by fluorescence spectrophotometric analysis; type: tissue-based; settings: Bos taurus
A549 [19] = assay: Cytotoxicity against human A549 cells assessed as morphological damage incubated for 72 hrs by inverted phase contrast microscopic analysis; type: functional, cell-based
Calf thymus DNA [20] = assay: Binding affinity to calf thymus DNA assessed as disruption of DNA by measuring increase in TB3+ fluorescence at 35.3 nM incubated for 24 hrs followed by biosensor TbCl3 addition by fluorescence spectrophotometric analysis; type: tissue-based; settings: Bos taurus

| Structure (SMILES) | selectivity ratio [1] | IC50 at 72 h [2] [nM] | IC50 (NCI-H460) [nM] | EC100 (WI-38) [µM] | selectivity ratio [3] | IC50 (A549 [4]) [nM] | further results |
| --- | --- | --- | --- | --- | --- | --- | --- |
| COc1ccc2c(c1)[C@@]1(C(=O)N2)[C@@H](C(=O)c2ccc([N+](=O)[O-])cc2)[C@H](c2cn(-c3ccccc3)nc2-c2ccccc2)CN1C | 6.34 | 1490 | 1140 | 0.539 | 1.3 | 235 | – |
| O=C(c1ccccc1[N+](=O)[O-])[C@H]1[C@H](c2cn(-c3ccccc3)nc2-c2ccccc2)[C@@H]2CC3CCCCC3N2[C@]12C(=O)Nc1ccccc12 (some centres undefined) | 2.43 | 413 | 613 | 0.224 | 0.67 | 170 | – |
| O=C(c1ccc(Br)cc1)[C@H]1[C@H](c2cn(-c3ccccc3)nc2-c2ccccc2)[C@@H]2CC3CCCCC3N2[C@]12C(=O)Nc1ccccc12 (some centres undefined) | 2.95 | 466 | 725 | 0.271 | 0.64 | 158 | – |
| O=C(c1ccc([N+](=O)[O-])cc1)[C@H]1[C@H](c2cn(-c3ccccc3)nc2-c2ccccc2)[C@@H]2CC3CCCCC3N2[C@]12C(=O)Nc1ccc(Cl)cc12 (some centres undefined) | – | 480 | 2460 | 0.249 | – | 89 | Activity (A549 [5]): 33.28%; Activity [6]: 60%; Activity (A549 [7]): 2.03%; Activity (A549 [8]): 38.56%; Activity (A549 [9]): 1.96%; Activity (A549 [10]): 7.46%; Activity [11]: Dose-Dependent Effect; Activity (Calf thymus DNA [12]): Active; Activity [13]: 88.4%; Activity (Calf thymus DNA [14]): Active; Activity (A549 [15]): 28.16%; Activity (A549 [16]): 15.13%; Activity (A549 [17]): 25.72%; Activity (Calf thymus DNA [18]): Active; Activity (A549 [19]): Active |
| CN1C[C@@H](c2cn(-c3ccccc3)nc2-c2ccccc2)[C@H](C(=O)c2ccc([N+](=O)[O-])cc2)[C@@]12C(=O)Nc1ccccc12 | 3.32 | 741 | 748 | 0.375 | 0.99 | 223 | – |
| O=C(c1ccc([N+](=O)[O-])cc1)[C@H]1[C@H](c2cn(-c3ccccc3)nc2-c2ccccc2)[C@@H]2CC3CCCCC3N2[C@]12C(=O)Nc1ccccc12 (some centres undefined) | 3.47 | 712 | 909 | 0.41 | 0.78 | 205 | – |
| O=C(c1ccc(Br)cc1)[C@H]1[C@H](c2cn(-c3ccccc3)nc2-c2ccccc2)[C@@H]2CC3CCCCC3N2[C@]12C(=O)Nc1cc(Cl)ccc12 (some centres undefined) | 5.05 | 1040 | 1420 | 0.594 | 0.73 | 205 | – |
| CN1C[C@@H](c2cn(-c3ccccc3)nc2-c2ccccc2)[C@H](C(=O)c2ccccc2)[C@@]12C(=O)Nc1ccc(Cl)cc12 | 1.93 | 545 | 417 | 0.308 | 1.3 | 283 | – |
| O=C(c1ccccc1[N+](=O)[O-])[C@H]1[C@H](c2cn(-c3ccccc3)nc2-c2ccccc2)[C@@H]2CC3CCCCC3N2[C@]12C(=O)Nc1ccc(Cl)cc12 (some centres undefined) | – | 294 | 1340 | 0.094 | – | 96 | Activity (Calf thymus DNA [12]): Active; Activity (Calf thymus DNA [20]): Active; Activity (Calf thymus DNA [18]): Active; Activity (A549 [19]): Active |
| O=C(c1ccccc1)[C@H]1[C@H](c2cn(-c3ccccc3)nc2-c2ccccc2)[C@@H]2CC3CCCCC3N2[C@]12C(=O)Nc1ccccc12 (some centres undefined) | 2.69 | 825 | 537 | 0.451 | 1.53 | 307 | – |
| O=C(c1ccccc1)[C@H]1[C@H](c2cn(-c3ccccc3)nc2-c2ccccc2)[C@@H]2CC3CCCCC3N2[C@]12C(=O)Nc1ccc(Cl)cc12 (some centres undefined) | 2.02 | 467 | 529 | 0.28 | 0.88 | 231 | – |
| CN1C[C@@H](c2cn(-c3ccccc3)nc2-c2ccccc2)[C@H](C(=O)c2ccc([N+](=O)[O-])cc2)[C@@]12C(=O)Nc1ccc(Cl)cc12 | 3.66 | 480 | 1030 | 0.287 | 0.46 | 131 | – |
| COc1cccc2c1C(=O)c1c(O)c3c(c(O)c1C2=O)C[C@@](O)(C(=O)CO)C[C@@H]3O[C@H]1C[C@H](N)[C@H](O)[C@H](C)O1 [DOXORUBICIN] | – | 129 | – | 0.033 | – | – | Activity (Calf thymus DNA [18]): Active |
| COc1ccc2c(c1)[C@@]1(C(=O)N2)[C@@H](C(=O)c2ccc([N+](=O)[O-])cc2)[C@H](c2cn(-c3ccccc3)nc2-c2ccccc2)[C@@H]2CC3CCCCC3N21 (some centres undefined) | 3.65 | 773 | 895 | 0.366 | 0.86 | 212 | – |
| O=C(c1ccccc1)[C@H]1[C@H](c2cn(-c3ccccc3)nc2-c2ccccc2)[C@@H]2CC3CCCCC3N2[C@]12C(=O)Nc1cc(Cl)ccc12 (some centres undefined) | 2.65 | 509 | 964 | 0.267 | 0.53 | 192 | – |
| O=C(c1ccccc1[N+](=O)[O-])[C@H]1[C@H](c2cn(-c3ccccc3)nc2-c2ccccc2)[C@@H]2CC3CCCCC3N2[C@]12C(=O)Nc1cc(Cl)ccc12 (some centres undefined) | 3.35 | 435 | 911 | 0.142 | 0.48 | 130 | – |
| CN1C[C@@H](c2cn(-c3ccccc3)nc2-c2ccccc2)[C@H](C(=O)c2ccccc2)[C@@]12C(=O)Nc1ccccc12 | 3.79 | 1300 | 761 | 0.59 | 1.71 | 344 | – |
